Results reported in US8546385B2, “Benzoic pyrrolopyridine derivatives” (Laboratoires FOURNIER SA, priority 2010, dated 2013).
Where two headings read alike, the source gives them in different places.

Assays:
[1] = target: hNurr1_RXRαFL (NURR-1/RXRα heterodimer) (Homo sapiens, UniProt P19793); test: Transactivation test (luciferase reporter) in Cos-7 cells co-transfected with NURR-1-Gal4 and RXRα; assay type: cell-based
Experimental: The ability of the compounds according to the invention to behave as activators of the heterodimers formed by the NURR-1 nuclear receptor and the RXR nuclear receptors was measured, by means of an in vitro test. A transactivation test was used as a primary screening test. […] The transfections were performed using a chemical agent (Jet PEI). The transfected cells were distributed into 384-well plates and left to stand for 24 hours. After 24 hours, the culture medium was changed. […] After incubating overnight, the luciferase expression was measured after addition of “SteadyGlo” according to the manufacturer's instructions (Promega). […] The levels of induction were calculated relative to the basal activity of each heterodimer. The results were expressed as a percentage of the level of induction relative to the level of induction obtained with the reference (the level of induction of the reference is arbitrarily equal to 100%).

[2] = target: hNurr1_RXRγFL (NURR-1/RXRγ heterodimer) (Homo sapiens, UniProt P48443); test: Transactivation test (luciferase reporter) in Cos-7 cells co-transfected with NURR-1-Gal4 and RXRγ; assay type: cell-based; settings: percentage efficacy relative to the reference XCT0135908 at 2×10^−5 M (=100%), read-out: hNurr1_RXRγFL Eff (%)
hNurr1_RXRγFL (NURR-1/RXRγ heterodimer), sequence (P48443 whole entry, the tested form may be a part): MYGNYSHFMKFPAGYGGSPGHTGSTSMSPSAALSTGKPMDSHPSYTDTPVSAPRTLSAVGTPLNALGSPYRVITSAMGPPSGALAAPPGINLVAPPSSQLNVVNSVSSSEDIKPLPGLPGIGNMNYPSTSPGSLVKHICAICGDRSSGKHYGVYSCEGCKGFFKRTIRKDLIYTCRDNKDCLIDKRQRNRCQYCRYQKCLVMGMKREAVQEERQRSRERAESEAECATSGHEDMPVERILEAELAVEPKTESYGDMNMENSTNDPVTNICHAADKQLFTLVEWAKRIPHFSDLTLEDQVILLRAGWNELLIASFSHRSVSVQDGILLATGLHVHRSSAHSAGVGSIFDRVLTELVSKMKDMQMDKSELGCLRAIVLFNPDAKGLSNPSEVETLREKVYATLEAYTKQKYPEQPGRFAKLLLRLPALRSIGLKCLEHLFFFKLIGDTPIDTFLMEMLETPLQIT
hNurr1_RXRγFL (NURR-1/RXRγ heterodimer), sequence (P43354 whole entry partner, the tested form may be a part): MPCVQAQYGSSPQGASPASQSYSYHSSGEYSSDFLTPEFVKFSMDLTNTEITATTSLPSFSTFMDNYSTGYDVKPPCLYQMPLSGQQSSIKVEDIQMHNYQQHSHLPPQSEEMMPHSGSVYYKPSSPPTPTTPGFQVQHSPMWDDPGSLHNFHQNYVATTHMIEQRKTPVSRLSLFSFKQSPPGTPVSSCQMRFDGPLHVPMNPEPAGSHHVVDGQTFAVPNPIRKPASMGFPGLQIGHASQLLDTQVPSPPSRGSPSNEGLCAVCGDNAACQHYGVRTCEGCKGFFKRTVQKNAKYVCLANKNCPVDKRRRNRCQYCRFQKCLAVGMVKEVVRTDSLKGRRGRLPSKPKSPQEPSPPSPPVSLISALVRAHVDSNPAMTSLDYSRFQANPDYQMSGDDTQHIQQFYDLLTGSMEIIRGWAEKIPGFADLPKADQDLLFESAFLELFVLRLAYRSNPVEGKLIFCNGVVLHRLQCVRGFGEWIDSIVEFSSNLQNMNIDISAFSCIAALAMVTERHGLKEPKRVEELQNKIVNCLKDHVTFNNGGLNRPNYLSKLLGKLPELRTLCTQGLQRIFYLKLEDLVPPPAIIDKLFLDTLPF
Experimental: The ability of the compounds according to the invention to behave as activators of the heterodimers formed by the NURR-1 nuclear receptor and the RXR nuclear receptors was measured, by means of an in vitro test.
A transactivation test was used as a primary screening test. Cos-7 cells were co-transfected with a plasmid expressing a construct of the NURR-1-Ga14 human receptor, a plasmid expressing the RXR human receptor (RXRα or RXRγ receptor) and a reporter plasmid 5Gal4pGL3-TK-Luc. The transfections were performed using a chemical agent (Jet PEI).
The transfected cells were distributed into 384-well plates and left to stand for 24 hours.
After 24 hours, the culture medium was changed. The test products were added (final concentration of between 10^−4 and 3×10^−10 M) in the culture medium. After incubating overnight, the luciferase expression was measured after addition of “SteadyGlo” according to the manufacturer's instructions (Promega).
4-[[6-Methyl-2-phenyl-5-(2-propenyl)-4-pyrimidinyl]amino]benzoic acid (reference XCT0135908, described by Wallen-Mackenzie et al. 2003, Genes & Development 17: 3036-3047) at 2×10^−5 M (RXR agonist) was used as reference.
The levels of induction were calculated relative to the basal activity of each heterodimer. The results were expressed as a percentage of the level of induction relative to the level of induction obtained with the reference (the level of induction of the reference is arbitrarily equal to 100%).

[3] = percentage efficacy relative to the reference XCT0135908 at 2×10^−5 M (=100%), read-out: hNurr1_RXRαFL Eff (%)

hNurr1_RXRαFL (NURR-1/RXRα heterodimer), sequence (P19793 whole entry, the tested form may be a part): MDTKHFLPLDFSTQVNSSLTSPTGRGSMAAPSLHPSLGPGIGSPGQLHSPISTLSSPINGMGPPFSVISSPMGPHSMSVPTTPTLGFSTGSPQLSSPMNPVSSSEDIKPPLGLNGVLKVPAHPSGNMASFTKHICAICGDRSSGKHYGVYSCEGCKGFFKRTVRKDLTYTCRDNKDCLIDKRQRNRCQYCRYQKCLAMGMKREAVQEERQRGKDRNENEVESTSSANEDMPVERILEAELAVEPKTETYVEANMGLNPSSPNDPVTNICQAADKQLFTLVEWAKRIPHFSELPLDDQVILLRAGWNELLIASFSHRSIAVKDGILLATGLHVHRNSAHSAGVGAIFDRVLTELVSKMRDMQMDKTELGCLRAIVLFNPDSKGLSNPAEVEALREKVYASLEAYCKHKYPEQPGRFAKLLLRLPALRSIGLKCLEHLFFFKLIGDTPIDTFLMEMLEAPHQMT
hNurr1_RXRαFL (NURR-1/RXRα heterodimer), sequence (P43354 whole entry, further chain, the tested form may be a part): as the sequence (P43354 whole entry partner, the tested form may be a part) above

Emax [1, 3] [%]	Emax [2] [%]	SMILES	Emax ([1]; COS-7, read-out: hNurr1_RXRαFL Eff (%), percentage efficacy relative to the reference XCT0135908 at 2×10^−5 M (=100%)) [%]
51		CC(C)(C)c1cccc(S(=O)(=O)n2c(Cc3ccc(C(=O)NS(C)(=O)=O)cc3)cc3nc(C(F)(F)F)ccc32)c1 [Example 39, N-{4-[1-(3-tert-butylbenzenesulfonyl)-5-trifluoromethyl-1H-pyrrolo[3,2-b]pyridin-2-ylmethyl]benzoyl}methanesulfonamide]	
67	64	CC(C)(C)c1cccc(S(=O)(=O)n2c(Cc3ccc(C(=O)O)s3)cc3nc(C(F)(F)F)ccc32)c1 [Example 1, 5-[[1-[[3-(1,1-dimethylethyl)phenyl]sulfonyl]-5-(trifluoromethyl)-1H-pyrrolo[3,2-b]pyridin-2-yl]methyl]thiophene-2-carboxylic acid]	
104		CC(C)(C)c1cccc(S(=O)(=O)n2c(Cc3cc(C(=O)O)co3)cc3cc(C(F)(F)F)ncc32)c1 [Example 4, 5-[[1-[[3-(1,1-dimethylethyl)phenyl]sulfonyl]-5-(trifluoromethyl)-1H-pyrrolo[2,3-c]pyridin-2-yl]methyl]furan-3-carboxylic acid]	
92	68	CC(C)(C)c1cccc(S(=O)(=O)n2c(Cc3ccc(C(=O)O)cc3)cc3nc(C(F)(F)F)ccc32)c1 [Example 22, 4-[[1-[[3-(1,1-dimethylethyl)phenyl]sulfonyl]-5-(trifluoromethyl)-1H-pyrrolo[3,2-b]pyridin-2-yl]methyl]benzoic acid]	
67		Cc1c(Cc2ccc(C(=O)O)cc2)n(S(=O)(=O)c2cccc(C(C)(C)C)c2)c2ccc(C(F)(F)F)nc12 [Example 37, 4-[[1-[[3-(1,1-dimethylethyl)phenyl]sulfonyl]-3-methyl-5-(trifluoro-methyl)-1H-pyrrolo[3,2-b]pyridin-2-yl]methyl]benzoic acid]	
92		CCN(CC)C(=O)c1ccc(C(F)c2cc3nc(C(F)(F)F)ccc3n2S(=O)(=O)c2cccc(C(C)(C)C)c2)s1 (stereo not shown) [Example 33, 5-[[1-[[3-(1,1-dimethylethyl)phenyl]sulfonyl]-5-(trifluoromethyl)-1H-pyrrolo[3,2-b]pyridin-2-yl]fluoromethyl]-N,N-diethyl-2-thiophenecarboxamide]	
81	75	CN1CCOc2ccc(S(=O)(=O)n3c(Cc4ccc(C(=O)O)cc4)cc4cc(C(F)(F)F)ncc43)cc21 [Example 12, 4-[[1-[(3,4-dihydro-4-methyl-2H-1,4-benzoxazin-6-yl)sulfonyl]-5-(trifluoromethyl)-1H-pyrrolo[2,3-c]pyridin-2-yl]methyl]benzoic acid]	
94		CC(C)(C)c1cccc(S(=O)(=O)n2c(Cc3cncc(C(=O)O)c3)cc3cc(C(F)(F)F)ncc32)c1 [Example 5, 5-[[1-[[3-(1,1-dimethylethyl)phenyl]sulfonyl]-5-(trifluoromethyl)-1H-pyrrolo[2,3-c]pyridin-2-yl]methyl]pyridine-3-carboxylic acid]	
70	86	CC(C)(C)c1cccc(S(=O)(=O)n2c(Cc3cccc(C(=O)O)c3)cc3cc(C(F)(F)F)ncc32)c1 [Example 2, 3-[[1-[[3-(1,1-dimethylethyl)phenyl]sulfonyl]-5-(trifluoromethyl)-1H-pyrrolo[2,3-c]pyridin-2-yl]methyl]-2-benzoic acid]	
57	52	CC(C)c1cccc(S(=O)(=O)n2c(Cc3ccc(C(=O)O)cc3)cc3cc(C(F)(F)F)cnc32)c1 [Example 25, 4-[[1-[[3-(1-methylethyl)phenyl]sulfonyl]-5-(trifluoromethyl)-1H-pyrrolo[2,3-b]pyridin-2-yl]methyl]benzoic acid]	
68	53	CC(C)c1ccc(S(=O)(=O)n2c(Cc3ccc(C(=O)O)cc3)cc3nc(C(F)(F)F)ccc32)cc1 [Example 16, 4-[1-(4-(1-methylethyl)phenylsulfonyl)-5-trifluoromethyl-1H-pyrrolo[3,2-b]pyridin-2-ylmethyl]benzoic acid]	
137		CC(C)(C)c1cccc(S(=O)(=O)n2c(Cc3csc(C(=O)O)c3)cc3cc(C(F)(F)F)ncc32)c1 [Example 6, 4-[[1-[[3-(1,1-dimethylethyl)phenyl]sulfonyl]-5-(trifluoromethyl)-1H-pyrrolo[2,3-c]pyridin-2-yl]methyl]thiophene-2-carboxylic acid]	
80		CC(C)c1ccc(S(=O)(=O)n2c(Cc3ccc(C(=O)O)s3)cc3cc(Cl)cnc32)cc1 [Example 38, 5-[[1-[[4-(1,1-methylethyl)phenyl]sulfonyl]-5-chloro-1H-pyrrolo[2,3-b]pyridin-2-yl]methyl]thiophene-2-carboxylic acid]	
62	69	CN1CCOc2ccc(S(=O)(=O)n3c(Cc4ccc(C(=O)O)cc4)cc4cc(C(F)(F)F)cnc43)cc21 [Example 18, 4-[[1-[(3,4-dihydro-4-methyl-2H-1,4-benzoxazin-6-yl)sulfonyl]-5-(trifluoromethyl)-1H-pyrrolo[2,3-b]pyridin-2-yl]methyl]benzoic acid]	
66	51	CC(C)(C)c1cccc(S(=O)(=O)n2c(Cc3ccc(C(=O)O)cc3)cc3cc(C(F)(F)F)cnc32)c1 [Example 28, 4-[[1-[[3-(1,1-dimethylethyl)phenyl]sulfonyl]-5-(trifluoromethyl)-1H-pyrrolo[2,3-b]pyridin-2-yl]methyl]benzoic acid]	
84		CC(C)(C)c1cccc(S(=O)(=O)n2c(C(O)c3ccc(C(=O)O)s3)cc3nc(C(F)(F)F)ccc32)c1 (stereo not shown) [Example 32, 5-{hydroxy[1-(3-(1,1-dimethylethyl)phenylsulfonyl)-5-trifluoromethyl-1H-pyrrolo[3,2-b]pyridin-2-yl]methyl}thiophene-2-carboxylic acid]	
103	72	CC(C)(C)c1cccc(S(=O)(=O)n2c(Cc3nc(C(=O)O)cs3)cc3nc(C(F)(F)F)ccc32)c1 [Example 8, 2-[[1-[[3-(1,1-dimethylethyl)phenyl]sulfonyl]-5-(trifluoromethyl)-1H-pyrrolo[3,2-b]pyridin-2-yl]methyl]thiazole-4-carboxylic acid]	
119		CC(C)(C)c1cccc(S(=O)(=O)n2c(Cc3ccc(F)c(C(=O)O)c3)cc3cc(C(F)(F)F)ncc32)c1 [Example 7, 5-[[1-[[3-(1,1-dimethylethyl)phenyl]sulfonyl]-5-(trifluoromethyl)-1H-pyrrolo[2,3-c]pyridin-2-yl]methyl]-2-fluorobenzoic acid]	
31		CC(C)(C)c1cccc(S(=O)(=O)n2c(C(=O)c3ccc(C(=O)O)s3)cc3nc(C(F)(F)F)ccc32)c1 [Example 34, 5-{1-(3-(1,1-dimethylethyl)phenylsulfonyl)-5-trifluoromethyl-1H-pyrrolo[3,2-b]pyridine-2-carbonyl}thiophene-2-carboxylic acid]	
42	27	CC(C)c1ccc(S(=O)(=O)n2c(Cc3ccc(C(=O)O)cc3)cc3cc(Cl)ncc32)cc1 [Example 20, 4-[[5-chloro-1-[[4-(1-methylethyl)phenyl]sulfonyl]-1H-pyrrolo[2,3-c]pyridin-2-yl]methyl]benzoic acid]	
64	54	CC(C)c1ccc(S(=O)(=O)n2c(Cc3ccc(C(=O)O)cc3)cc3cc(C(F)(F)F)ncc32)cc1 [Example 14, 4-[[1-[[4-(1-methylethyl)phenyl]sulfonyl]-5-(trifluoromethyl)-1H-pyrrolo[2,3-c]pyridin-2-yl]methyl]benzoic acid]	

SMILES	Emax [1, 3] [%]	Emax [2] [%]	Emax ([1]; COS-7, read-out: hNurr1_RXRαFL Eff (%), percentage efficacy relative to the reference XCT0135908 at 2×10^−5 M (=100%)) [%]
CC(C)c1ccc(S(=O)(=O)n2c(Cc3ccc(C(=O)O)cc3)cc3cc(Cl)cnc32)cc1 [Example 31, 4-[[5-chloro-1-[[4-(1-methylethyl)phenyl]sulfonyl]-1H-pyrrolo[2,3-b]pyridin-2-yl]methyl]benzoic acid]		48	63
